{"source": "patent US12186283B2", "about": "“Bismuth-thiol compositions and methods of use” (Microbion Corporation, priority 2018, dated 2025)", "key": {"[1]": {"system": "S. pneumoniae (pneumococci)", "test": "Broth microdilution MIC (Example 11)", "type": "cell-based, Streptococcus pneumoniae", "conditions": "pneumococci incl. multi-drug resistant"}, "[2]": {"test": "Particle size distribution of BisEDT microparticles", "type": "physicochemical", "conditions": "microparticles resuspended in 2% poloxamer 188, Nanosizer/Zetasizer Nano-S", "experimental": "The dried particulate matter was characterized to assess the particle size properties. Briefly, microparticles were resuspended in 2% poloxamer 188 (Pluronic® F-68) (BASF, Mt. Olive, NJ) and the suspension was sonicated for 10 minutes in a water bath sonicator at standard setting prior to analysis using a Nanosizer/Zetasizer Nano-S particle analyzer (model ZEN1600 (without zeta-potential measuring capacity), Malvern Instruments, Worcestershire, UK) according to the manufacturer's recommendations.\nIt was observed that careful control of the reaction temperature and the rate of 1,2 ethanedithiol addition had pronounced impact on the BisEDT particle size distribution."}, "[3]": {"test": "Rat tolerance of BisEDT (inhalation, IV, oral)", "conditions": "100 μg/kg inhalation and IV and 250 μg/kg oral, single dose"}, "[4]": {"system": "MUCILAIR™ fully differentiated human airway epithelium", "test": "Acute toxicity on […] fully differentiated human airway epithelium (LDH, TEER, morphology)", "type": "cell-based", "experimental": "Controlled in vitro evaluation of BisEDT, with respect to potential cytotoxicity on fully differentiated human airway epithelium was carried out. Both solubilized and solid (powder/particulate) forms of BisEDT were evaluated for cytotoxicity by Epithelix, a contract research organization (CRO) specializing in this form of cytotoxicity evaluation utilizing a proprietary, in vitro fully differentiated human airway epithelium test system ([…]™). The […]™ system facilitated evaluation of cytotoxicity through both LDH release (from the culture medium side) and trans-epithelial electrical resistance (TEER) from the apical/air-exposed side as well as pre- and post-exposure microscopic examination for morphological changes (FIG. 13).\nThe assay system used in this study is Epithelix's proprietary technology sold under the trademark […]™ […]™ is a fully differentiated and ready-to-use 3D model of human airway epithelium, constituted with primary human epithelial cells freshly isolated from nasal, tracheal or bronchial biopsies. […]™ (FIG. 24), is not only morphologically and functionally differentiated, but can also be maintained in a homeostatic state for a long period of time (Huang et al., 2009).\n[…]™ is composed of basal cells, ciliated cells and mucus cells. The proportion of these various cell types is preserved compared to what one observes in vivo (Huang et al., 2011). Moreover the epithelia are started from de-differentiated cells. The cells undergo a progressive differentiation with time. After 45 days of culture, the epithelia are fully ciliated, secret mucus and are electrically tight (TEER>200 (2 Ω·cm^2). The activity of the main epithelial ionic channels, such as CFTR, EnaC, Na/K ATPase, is preserved and the epithelia is shown to respond in a regulated and vectorial manner to the pro-inflammatory stimulus, TNF-α (Huang et al., 2011). A large panel of cytokines, chemokines and metalloproteinases has been detected in […]™ (e.g. IL-8, IL-6, GM-CSF, MMP-9, GRO-α).\nBisEDT (MB-1-B3) was applied on the apical surface of […]™ during 1, 8, 24 and 48 hours (FIG. 13). The effect of 6 concentrations was studied: 0.001, 0.01, 0.1, 1, 10 and 30 uM. […] 30 μl solution at the selected concentration was applied on the apical surface of […]™. The negative control corresponds to the vehicle solution (0 μM) and untreated cultures. The positive control corresponds to 50 μl to 10% Triton X-100 diluted in a buffered saline solution. The study was run in triplicates.\nDuring the study, inserts were maintained in a CO2 incubator (37° C., 5% CO2, 100% humidity). The following end-points were determined: • Tissue integrity monitoring: Trans-Epithelial Electrical Resistance (TEER) measurement (quantitative) at D0, D1 and D2. • Cytotoxicity monitoring: LDH test (quantitative) at D0, D1 and D2. • Morphology: cellular and tissue integrity examined under contrast microscope at DO, D1 and D2.\n(§1) Compound BisEDT was applied on the apical surface of […]™. The effect of 5 concentrations after 1, 8, 24 and 48 hours exposure was studied: 0.033, 0.33, 3.33, 33.3, 333 μg/cm^2. The compound was diluted in Dextran powder at the targeted concentration and compressed in order to obtain a tablet. The study was run in triplicates. During the study, inserts were maintained in a CO2 incubator (37° C., 5% CO2, 100% humidity).\nas §1, with “of 1 μg/cm^2” for “of 5”, “was studied.” for “was studied: 0.033, 0.33, 3.33, 33.3, 333 μg/cm^2.”"}, "[5]": {"system": "Klebsiella pneumoniae", "conditions": "K. pneumoniae ATCC BAA-1705, QC organism; cited from earlier work"}, "[6]": {"conditions": "BisEDT as solid, 1 μg/cm^2, 1 hour exposure"}, "[7]": {"conditions": "BisEDT as solid, 0.033 and 0.33 μg/cm^2, all tested time points"}, "[8]": {"conditions": "BisEDT in solution 0.001-30 μM apical, 1, 8, 24 and 48 hours"}}, "data": [{"smiles": "CC(S)C(C)S.[Bi]", "note": "(centres unmarked) [BisBDT, bismuth-2,3-butanedithiol]", "values": [{"measurement": "MIC values (range across isolates)", "setting": "[1]", "result": "0.5 to 8", "unit": "µg/mL"}]}, {"smiles": "C1C[S][Bi]([S]CC[S][Bi]2[S]CC[S]2)[S]1", "note": "[BisEDT, bismuth-1,2-ethanedithiol]", "values": [{"measurement": "peak VMD", "setting": "[2]", "result": "about 1.3 microns"}, {"measurement": "tolerability", "setting": "[3]", "result": "tolerated"}, {"measurement": "morphology after exposure", "setting": "[4]; BisEDT as solid in dextran tablet, 3.33 μg/cm^2, 24 and 48 h", "result": "Cells were rounded and opaque at the periphery of inserts"}, {"measurement": "morphology after exposure", "setting": "[4]; BisEDT as solid in dextran tablet, 0.033 and 0.33 μg/cm^2", "result": "No morphological modifications were observed"}, {"measurement": "morphology after exposure", "setting": "[4]; BisEDT as solid in dextran tablet, 33.3 and 333 μg/cm^2, 8, 24 and 48h", "result": "Cells were rounded and opaque on the inserts"}, {"measurement": "tissue integrity (TEER)", "setting": "[4]; BisEDT as solid, 1 μg/cm^2, 8, 24 and 48H exposure", "result": "Loss of tissue integrity is observed"}, {"measurement": "cytotoxicity (LDH release)", "setting": "[4]; BisEDT as solid, 1 μg/cm^2, 8, 24 and 48h", "result": "time- and dose-dependent cytotoxicity is observed"}, {"measurement": "morphology after exposure", "setting": "[4]; BisEDT as solid, 1 μg/cm^2, 1 hour and 8 hour exposure", "result": "no important morphological changes were observed"}, {"measurement": "cytotoxicity (LDH release)", "setting": "[4]; [6]", "result": "No significant effect on LDH release"}, {"measurement": "tissue integrity (TEER)", "setting": "[4]; [6]", "result": "no significant effect on TEER was observed"}, {"measurement": "morphology after exposure", "setting": "[4]; BisEDT as solid, 1 μg/cm^2, 24h exposure", "result": "the epithelial cells on 2 inserts out of 3 were dead"}, {"measurement": "morphology after exposure", "setting": "[4]; BisEDT as solid, 1 μg/cm^2, 48 h exposure", "result": "the epithelial cells on all 3 inserts were dead"}, {"measurement": "cytotoxicity (LDH release)", "setting": "[4]; [7]", "result": "No significant effect on LDH release"}, {"measurement": "tissue integrity (TEER)", "setting": "[4]; [7]", "result": "No significant effect was observed on TEER"}, {"measurement": "cytotoxicity (LDH increase, TEER reduction)", "setting": "[4]; BisEDT as solid, 1 and 3.33 μg/cm^2, 24 h and 48h exposure", "result": "induces cytotoxicity"}, {"measurement": "cytotoxicity (LDH release)", "setting": "[4]; BisEDT as solid, 3.3, 33.3 and 333 μg/cm^2", "result": "time and dose dependent, cytotoxicity is observed"}, {"measurement": "tissue integrity (TEER)", "setting": "[4]; BisEDT as solid, 3.33, 33.3 and 333 μg/cm^2, 8, 24 and 48H exposure", "result": "Loss of tissue integrity is observed"}, {"measurement": "toxicity (LDH, TEER, morphology)", "setting": "[4]; BisEDT as solid, 33.3, 333 μg/cm^2", "result": "strong toxicity was observed"}, {"measurement": "tissue integrity (TEER)", "setting": "[4]; BisEDT as solid, all tested doses (0.033-333 μg/cm^2), 1 hour exposure", "result": "no significant effect on TEER is observed"}, {"measurement": "local toxicity on the airway epithelium (morphology, TEER, LDH)", "setting": "[4]; BisEDT in liquid solution 0.001-30 μM, 1, 8, 24 and 48 hours", "result": "showed no local toxicity"}, {"measurement": "morphology after exposure", "setting": "[4]; [8]", "result": "No morphology changes were observed"}, {"measurement": "percentage of cytotoxicity (LDH release)", "setting": "[4]; [8]", "result": "LDH release was not altered"}, {"measurement": "tissue integrity (TEER)", "setting": "[4]; [8]", "result": "didn't show significant effect on TEER"}, {"measurement": "highest tested concentration, no toxic effects observed", "setting": "[4]; solubilized BisEDT, all time points up to 48 hours (=20.83 μg/mL)", "result": 30, "unit": "µM"}]}, {"smiles": "C[C@@H](O)[C@H]1C(=O)N2C(C(=O)O)=C(S[C@@H]3CN[C@H](C(=O)N(C)C)C3)[C@H](C)[C@H]12", "note": "[MEM]", "values": [{"measurement": "MIC, QC range", "setting": "[5]", "result": "(8-64) μg/mL"}]}]}
